Laboratory results taken from patent US9062125B2, “Use of GIP for the treatment of disorders associated with dysfunctional synaptic transmission” (Innovation Ulster Limited, priority 2007, dated 2015).
Non-standard residues stand in square brackets, D forms with d. No end group written: not given here. *: point of attachment. mPEG = mini-PEG HO—(CH2—O—CH2)n—H, n about 3; Myristoyl = CCCCCCCCCCCCCC(=O)*

What was measured:
Set-up in all cases: species or system rat
Male Wistar rats [1] = test: In vivo LTP in hippocampal CA1 (field EPSP slope), strong HFS protocol, icv injection
Source text: (§1) Male Wistar rats weighing 220-280 g were anaesthetised with urethane (ethyl carbamate, 1.8 g/kg, i.p.) for the duration of all experiments. The animals had been obtained from Harlan, United Kingdom (UK).
(§2) A cannula (22 gauge, 0.7 mm outer diameter, 11 mm in length, Bilaney, Kent, UK) was implanted (1.5 mm anterior to bregma, 0.5 mm lateral to the midline and 3.55 mm ventral) into the left hemisphere for intracerebroventricular (icv) injections. Electrodes (tungsten with Teflon coating, Bilaney, Kent, UK) were implanted unilaterally 3.4 mm posterior and 2.5 mm lateral to the midline, and the stimulating electrode 4.2 mm posterior to bregma and 3.8 mm lateral to the midline. […] Recordings of EPSPs were made from the stratum radiatum in the CA1 region of the right hippocampal hemisphere in response to stimulation of the Schaffer collateral/commissural pathway.
(§3) Field EPSPs were recorded on a computerised stimulating and recording unit (PowerLab, ADI instruments, UK) in which the trigger threshold was adjustable. The triggered unit activated a constant current stimulus isolation unit (Neurolog, UK). The data acquisition system was triggered simultaneously to record all events. Sampling speed was at 20 kHz recording of EPSPs.
(§4) The ‘strong’ high frequency stimulation (HFS) protocol for inducing LTP consisted of 3 trains of 200 stimuli, inter-stimulus interval 5 ms (200 Hz), inter-train interval 2 sec. […] The ‘weak’ HFS protocol for inducing LTP consisted of 10 trains of 10 stimuli, inter-stimulus interval 5 ms (200 Hz). The strong HFS was used to test the effects of peptides that impair LTP (beta-amyloid), and the weak HFS was used to test peptides that facilitate LTP. In this form of LTP, the control group is not potentiated at a maximal rate, and LTP can decay slowly over time.
(§5) Stimulation intensity was 70% of the maximum EPSP. LTP was measured as a % of baseline EPSP slope recorded over a 30 min period prior to drug injection and 60 min prior to application of HFS. Baseline was recorded for 30 min and averaged. This value was taken as 100% of the EPSP slope and all recoded values were normalised to this baseline value.
Beta-amyloid(25-35) and other peptides used in this study were synthetised on an Applied Biosystems automated peptides synthesiser (Model 432A) using standard solid-phase Fmoc protocols. […]
(§6) Each group consisted of 6 animals. Data were analysed using a repeated measures two-way ANOVA, or a repeated measures three level two-way ANOVA with post-hoc tests to discriminate between groups (PRISM, GraphPad software Inc, USA).

Male Wistar rats [2] = test: In vivo LTP in hippocampal CA1 (field EPSP slope), weak HFS protocol, icv injection; conditions: 15 nmol icv, LTP induced 30 min post-injection, n=6
Source text: as §1, §2, §3, §4, §5
Beta-amyloid(25-35) and other peptides used in this study were synthetised on an Applied Biosystems automated peptides synthesiser (Model 432A) using standard solid-phase Fmoc protocols. Peptides were judged pure by reversed phase HPLC on a Waters Millennium 2010 chromatography system, and peptides were subsequently characterised using matrix-assisted laser desorption/ionisation time of flight (MALDI-TOF) mass spectrometry as described previously (Gengler et al., 2006; Hölscher et al., 2007). Peptides were stored in dry form and dissolved in double distilled water before the experiments. 5 μl of peptide solution was injected icv.
as §6

Male Wistar rats [3] = test: In vivo prevention of beta-amyloid(25-35)-induced impairment of LTP in hippocampal CA1; conditions: n=6, FIG. 5
Source text: as §1
A cannula (22 gauge, 0.7 mm outer diameter, 11 mm in length, Bilaney, Kent, UK) was implanted (1.5 mm anterior to bregma, 0.5 mm lateral to the midline and 3.55 mm ventral) into the left hemisphere for intracerebroventricular (icv) injections. Electrodes (tungsten with Teflon coating, Bilaney, Kent, UK) were implanted unilaterally 3.4 mm posterior and 2.5 mm lateral to the midline, and the stimulating electrode 4.2 mm posterior to bregma and 3.8 mm lateral to the midline. […]
Field EPSPs were recorded on a computerised stimulating and recording unit (PowerLab, ADI instruments, UK) in which the trigger threshold was adjustable. […]
Stimulation intensity was 70% of the maximum EPSP. LTP was measured as a % of baseline EPSP slope recorded over a 30 min period prior to drug injection and 60 min prior to application of HFS. Baseline was recorded for 30 min and averaged. […]
Each group consisted of 6 animals. Data were analysed using a repeated measures two-way ANOVA, or a repeated measures three level two-way ANOVA with post-hoc tests to discriminate between groups (PRISM, GraphPad software Inc, USA). […]

[4] = 15 nmol icv, LTP induced 30 min post-injection, n=6

Which “effect on long-term potentiation (LTP; change in EPSP) compared with control” value (Male Wistar rats [1]; [4]) does the source give for “Ala(1)GIP: human GIP(1-42) in which Tyr at position 1 has been replaced with L-Ala (AAEGTFISDYSIAMDKIHQQDFVNWLLAQKGKKNDWKHNITQ; Synthetic analogue derived from human GIP(1-42))” here?
The value was “attenuated long-term potentiation (LTP) compared with control”.

For “D-Ala(2)GIP: human GIP(1-42) in which L-Ala at position 2 has been replaced with D-Ala (Y[dA]EGTFISDYSIAMDKIHQQDFVNWLLAQKGKKNDWKHNITQ)”, which “effect on long-term potentiation (LTP; change in EPSP) compared with control” value (Male Wistar rats [2]) is on record?
The value was “enhanced long-term potentiation (LTP) compared with control”.

How did the “effect on long-term potentiation (LTP; change in EPSP) compared with control” value (Male Wistar rats [2]) turn out when “GIP: Human gastric inhibitory polypeptide, full length 42 amino acid peptide, SEQ ID NO: 1 (YAEGTFISDYSIAMDKIHQQDFVNWLLAQKGKKNDWKHNITQ; listed as Homo sapiens)” was run?
Its value is “increased long-term potentiation (LTP) compared with control”.

How did the “effect on long-term potentiation (LTP; change in EPSP) compared with control” value (Male Wistar rats [2]) turn out when “GIP[Lys(37)Myristic acid]: GIP analogue created by Myristic acid addition at an epsilon amino group of Lys(37) (YAEGTFISDYSIAMDKIHQQDFVNWLLAQKGKKNDWK(Myristoyl)HNITQ; UniProt P09681 52-93, looked up)” was run?
The value was “enhanced long-term potentiation (LTP) compared with control”.

For “GIP[mPEG]: C-terminal mini-PEGylated human GIP(1-42), polymer moiety HO—(CH2—O—CH2)n—H, n about 3 (YAEGTFISDYSIAMDKIHQQDFVNWLLAQKGKKNDWKHNITQ-mPEG; UniProt P09681 52-93, looked up)”, which “effect on long-term potentiation (LTP; change in EPSP) compared with control” value (Male Wistar rats [2]) is on record?
Its value is “enhanced long-term potentiation (LTP) compared with control”.

For “N-AcGIP: N-terminally acetylated human GIP(1-42)”, which “effect on βA(25-35)-induced impairment of LTP” value (Male Wistar rats [3]; 15 nmol icv, 100 nmol βA(25-35) injected 30 min later, LTP induced 15 min post-βA injection, p<0.001 vs βA group) is on record?
The value was “attenuated the βA(25-35)-induced impairment of LTP”.

What about the “effect on long-term potentiation (LTP; change in EPSP) compared with control” value (Male Wistar rats [2]) of the same substance?
The value was “enhanced long-term potentiation (LTP) compared with control”.

For “Pro(3)GIP: human GIP(1-42) in which Glu at position 3 has been replaced with L-Pro (YAPGTFISDYSIAMDKIHQQDFVNWLLAQKGKKNDWKHNITQ; Synthetic analogue derived from human GIP(1-42))”, which “effect on long-term potentiation (LTP; change in EPSP) compared with control” value (Male Wistar rats [1]; [4]) is on record?
The value was “attenuated long-term potentiation (LTP) compared with control”.

What does the source list for “βA(25-35): beta-amyloid fragment 25-35, synthesised peptide used to impair LTP (GSNKGAIIGLM; Amyloid-beta protein 42; UniProt P05067 696-706, looked up, fragment) [reference compound]”?
effect on LTP compared with control (Example 5 experiment) (Male Wistar rats [3]; 100 nmol icv alone, LTP induced 15 min post-injection, p<0.001): difference between the βA(25-35) group and control; effect on long-term potentiation (LTP; change in EPSP) compared with control (Male Wistar rats [1]; 10 nmol icv, LTP induced 15 min post-injection, p<0.01, n=6, FIG. 2): impaired long-term potentiation (LTP) compared with control; effect on long-term potentiation (LTP; change in EPSP) compared with control (Male Wistar rats [1]; 100 nmol icv, LTP induced 15 min post-injection, p<0.005, n=6, FIG. 2): LTP development was also impaired
